Experimental findings from ChEMBL document CHEMBL5500394, “Structure-Activity Studies of 1,2,4-Oxadiazoles for the Inhibition of the NAD+-Dependent Lysine Deacylase Sirtuin 2” (J Med Chem, 2024) are described below.

Activity calls are given as the source filed them. No cut-off for these calls is given here.

The target in assay [1] is T1, NAD-dependent protein deacetylase sirtuin-2 (Homo sapiens, UniProt Q8IXJ6).
T1 sequence (Q8IXJ6 whole entry): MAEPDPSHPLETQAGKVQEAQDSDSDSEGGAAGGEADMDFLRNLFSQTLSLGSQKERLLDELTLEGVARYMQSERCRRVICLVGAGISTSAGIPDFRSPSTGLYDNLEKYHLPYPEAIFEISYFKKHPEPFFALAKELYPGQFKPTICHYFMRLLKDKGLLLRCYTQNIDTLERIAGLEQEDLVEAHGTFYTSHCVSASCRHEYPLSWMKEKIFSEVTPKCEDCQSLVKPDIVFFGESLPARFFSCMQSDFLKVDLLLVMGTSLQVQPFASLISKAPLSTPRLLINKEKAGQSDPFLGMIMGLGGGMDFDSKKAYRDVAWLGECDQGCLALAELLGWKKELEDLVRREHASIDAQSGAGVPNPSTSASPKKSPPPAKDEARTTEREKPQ
The assay can be described thus: Inhibition of human Sirt2 (56 to 356 residues) demyristoylation expressed in Escherichia coli BL21 (DE3) using ZMML as substrate incubated for 4 hrs in presence of NAD+ by fluorescence based microplate reader assay.

The target of assay [2] is T1, NAD-dependent protein deacetylase sirtuin-2. The assay can be described thus: Inhibition of human Sirt2 (56 to 356 residues) deacetylation expressed in Escherichia coli BL21 (DE3) using ZMAL as substrate incubated for 4 hrs in presence of NAD+ by fluorescence based microplate reader assay.
Assay [3] concerns the target T2, NAD-dependent protein deacetylase sirtuin-2 (Homo sapiens) (UniProt Q8IXJ6).
T2 sequence (whole entry): T1 sequence (Q8IXJ6 whole entry)
Conditions: PC-3M-luc, dose 20.0 µM, time 6.0 hrs.

Assay [4] deals with T1, NAD-dependent protein deacetylase sirtuin-2. The assay can be described thus: Inhibition of recombinant human C-terminal His-tagged Sirt2 (50 to 356 residues) expressed in Escherichia coli using r ETDKmyr as substrate.
The target is the same in assay [5]. The assay is described as follows: Inhibition of recombinant human C-terminal His-tagged Sirt2 (50 to 356 residues) expressed in Escherichia coli using QPKKac as substrate.
A short description of assay [6]: Inhibition of schistosoma mansoni Sirt2 (21 to 322 residues) deacetylation expressed in Escherichia coli BL21 (DE3) using ZMAL as substrate incubated for 1 hr in presence of NAD+ by fluorescence based microplate reader assay.
Another assay relates to PC-3M-luc. Conditions: Homo sapiens, dose 10-20 µM, time 3.0 day.
The target of assay [7] is T2, NAD-dependent protein deacetylase sirtuin-2 (Homo sapiens). The assay is described as follows: Induction of human Sirt2 stabilization (56 to 356 residues) expressed in Escherichia coli BL21 (DE3) assessed as change in melting temperature at 25 uM in presence of NAD+ by differential scanning fluorimetry analysis. On the technique in general: In DSF a fluorescence change marks the thermal transition of the protein.

In another assay the test system is HeLa. The assay can be described thus: Cytotoxicity against human HeLa cells at 1 to 25 uM incubated for 72 hrs by MTS assay. Format: functional, cell-based. Conditions: dose 1-25 µM. On the technique in general: Tetrazolium assays rely on reduction of a dye to a coloured formazan, in cell work by metabolically active cells.

The IC50 is the concentration that inhibits the measured activity by half.

Description for PC-3M-luc: Inhibition of cell migration in human PC-3M-luc cells at 10 to 20 uM incubated for 3 days

As to `COc1cccc(C(=O)Nc2ccc(-c3noc(CC4CCCN(Cc5cccc(F)c5C)C4)n3)cc2)c1` (stereo unspecified), the half-inhibitory concentration (IC50) came out at 22.3 µM in assay [1] and 0.88 µM in assay [2].

Regarding `Cc1c(F)cccc1CN1CCCC(Cc2nc(-c3ccc(NC(=O)Nc4ccccc4)cc3)no2)C1` (stereo unspecified), the IC50 in [1] worked out at 20.1 µM; in assay [2] it was 0.21 µM.

With `Cc1c(F)cccc1CN1CCCC(Cc2nc(-c3ccc(NC(=S)NCc4ccccc4)cc3)no2)C1` (stereo unspecified), the IC50 in [1] came to 6.65 µM; in [2], 0.64 µM. In assay [3], the inhibition result is “Active”.

Turning to `CCCCCCCCCCCCNC(=S)NCCCC[C@H](NS(C)(=O)=O)C(=O)N[C@@H](C)C(=O)N[C@@H](CCCNC(=N)N)C(N)=O`, the 50% inhibitory concentration (IC50) in assay [4] amounted to 0.17 µM; in assay [5] it was 0.04 µM.

Take `COc1ccc(CC(=O)Nc2ccc(-c3noc(CC4CCCN(Cc5cccc(F)c5C)C4)n3)cc2)cc1` (stereo unspecified): the concentration for half-maximal inhibition (IC50) in [1] is 27.7 µM; in assay [2], 1.1 µM.

For `COc1ccc(NC(=O)Nc2ccc(-c3noc(CC4CCCN(Cc5cccc(F)c5C)C4)n3)cc2)cc1` (stereo unspecified), the concentration for half-maximal inhibition (IC50) came to 25 µM in assay [1] and 0.62 µM in [2].

`Cc1c(F)cccc1CN1CCCC(Cc2nc(-c3ccc(NC(=S)Nc4ccccc4)cc3)no2)C1` (stereo unspecified): the concentration for half-maximal inhibition (IC50) in assay [1] amounted to 6.2 µM; in assay [2], 0.9 µM.

Regarding `CC(=O)Nc1ccc(-c2noc(CC3CCCN(Cc4cccc(F)c4C)C3)n2)cc1` (stereo unspecified), the results for the IC50 in assay [1] and in assay [6] were 11 µM and 14 µM, respectively.

For `Cc1c(F)cccc1CN1CCCC(Cc2nc(-c3ccc(NC(=O)NCc4ccccc4)cc3)no2)C1` (stereo unspecified), the values for the IC50 in [1] and in assay [2] were 10.2 µM and 1.07 µM, respectively.

As to `Cc1cc(C)nc(SCC(=O)Nc2ncc(Cc3cccc(OCc4cn(Cc5ccc(OCCN6CCOCC6)cc5)nn4)c3)s2)n1`, the IC50 in assay [1] stood at 2.4 µM. The inhibition result (in assay [3]; with PC-3M-luc) was “Active” each time.

Take `COc1ccc(C(=O)Nc2ccc(-c3noc(CC4CCCN(Cc5cccc(F)c5C)C4)n3)cc2)cc1` (stereo unspecified): the concentration for half-maximal inhibition (IC50) in [1] was 12.6 µM; in [2], 0.43 µM.

For the molecule `Cc1c(F)cccc1CN1CCCC(Cc2nc(-c3ccc(N)cc3)no2)C1` (stereo unspecified), the outcome (in assay [7]; with HeLa) was inactive. Moreover, the 50% inhibitory concentration (IC50) in [1] is 22.2 µM; in [2] it was 17.8 µM. For the same molecule, the inhibition entry (in [3]; with PC-3M-luc) was “inactive” in each case.

With `Cc1c(F)cccc1CN1CCCC(Cc2nc(-c3ccc(NC(=O)c4ccc(Cl)s4)cc3)no2)C1` (stereo unspecified), the IC50 in [2] is 0.67 µM.
